Data on one compound can be found in patent US20080125477A1, “7-(ACRYLOYL) INDOLE COMPOSITIONS AND METHODS OF MAKING AND USING SAME” (DECODE GENETICS, EHF., priority 2006, published 2008).

Values after ≈ are worked out from the molar mass of the structure shown.

For data set [1], the target named is T1, prostanoid hEP3 receptors (Homo sapiens, UniProt P43115).
T1 sequence (P43115 1-390): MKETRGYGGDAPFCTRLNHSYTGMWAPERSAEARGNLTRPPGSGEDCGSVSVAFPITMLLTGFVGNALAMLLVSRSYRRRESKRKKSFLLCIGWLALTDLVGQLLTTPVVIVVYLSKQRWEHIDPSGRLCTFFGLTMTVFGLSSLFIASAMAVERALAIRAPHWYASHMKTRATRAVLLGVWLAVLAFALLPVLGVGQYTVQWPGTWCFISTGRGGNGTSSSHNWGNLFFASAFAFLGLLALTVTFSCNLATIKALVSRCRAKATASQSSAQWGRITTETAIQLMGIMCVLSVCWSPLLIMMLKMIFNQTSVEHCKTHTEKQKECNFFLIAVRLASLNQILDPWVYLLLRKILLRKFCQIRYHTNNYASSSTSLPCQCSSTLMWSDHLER
The data set can be described thus: binding on prostanoid hEP3 receptors. The procedure: DTSI and related compounds were assayed for binding on prostanoid hEP3 receptors according to the method of Abramovitz et al [Bioch. Biophys.

Another data set deals with human platelets. The data set can be described thus: platelet aggregation in vitro, human platelets. The format is cell-based. The settings on record: agonist Sulprostone (100 nM) and collagen (0.125 ug.mL), Serum % 100. The procedure:
(§1) DTSI and related compounds were assayed for their effect on platelet aggregation in vitro. In experiments with human platelets, whole blood was extracted from overnight-fasted human donors. Each experiment was performed with blood from a single individual. In experiments with rodent platelets, whole blood was gathered from the heart of female mice or male rats under isofluran (Abbott) anaesthesia. Blood was pooled from two or ten individual rodents for each experiment in the case of rat and mouse experiments, respectively. In all cases, blood was collected into 3.8% sodium citrate tubes (Greiner Bio-one). Platelet-rich plasma (PRP) was obtained by centrifugation at 100×g for 15 min at 25° C. for humans, at 150×g for rats, or at 80×g for 10 min for mice. Platelet-poor plasma was obtained by centrifugation of the remaining blood at 2,400×g for 10 min at 25° C. After counting in an Autocounter (Model 920 EO, Swelab) platelets were diluted when necessary to the desired stock concentrations (200,000-300,000 platelets/μl) using 0.9% NaCl isotonic solution (Braun).
(§2) Platelet aggregation was determined by light absorbance using a platelet aggregometer with constant magnetic stirring (Model 490, Chronolog Cop., Havertown, Pa., USA), using a volume of 500 μl per cuvette. […] IC50 values were calculated using GraphPad Prism 3.02 for Windows (GraphPad Software, San Diego, Calif. USA). […]

The test system of the next data set is rodent platelets (rat). Description: platelet aggregation in vitro, rat platelets. The format is cell-based. The settings on record: agonist Sulprostone (100 nM) and collagen (2.0 ug.mL), Serum % 20. The procedure:
as §1, §2

Data set [2] can be described thus: aqueous solubility of micronized DTSI in surfactant/amine solutions. The settings on record: for solubility at 60 min: thermodynamic from solid, micronized DTSI. The format is physicochemical. As to the method: The solubility of DTSI in aqueous PEG, cyclodextrins, glycerides and other solvent systems was evaluated. Excess amount of the DTSI was added to the aqueous compatible/complexation media, the suspension formed was sonicated for 60 minutes (and also heated up to 75° C. e.g. for cyclodextrins). The suspensions at room temperature were filtered and the amount of dissolved drug was determined by HPLC.

The test system of data set [3] is pulmonary thromboembolism by arachidonic acid. Description: pulmonary thromboembolism assay (platelet aggregation in vivo). The settings on record: 100 mg/kg orally, 30 min before arachidonic acid 30 mg/kg i.v.; survival one hour after challenge.
Protocol: DTSI was also assayed for its effects on platelet aggregation in vivo. […] For the pulmonary thromboembolism assay, conscious female C57BL/6 mice were dosed orally with the test compounds and 30 min later thromboembolism was induced by injection of arachidonic acid into a tail vein at a dose of 30 mg per kg body weight. Survival was evaluated one hour after the challenge with arachidonic acid, as mice that survive for that length of time usually recovered fully. The arachidonic acid injection was given via a lateral tail vein in a mouse that had been warmed briefly under a heat lamp (dilation of the tail veins using heat facilitates placing the injection). An insulin syringe, 0. 5 mL (from Becton Dickinson) was used for dosing. The dose volume given of both the test compound and the arachidonic acid was adjusted to the weight of the mouse (the dose volume p.o. for test compounds and i.v. for arachidonic acid solution was 10 μL and 5 μL per gram body weight, respectively).

By IC50 is commonly meant the concentration at which inhibition is half-maximal. Low readings indicate greater potency, high ones weaker potency. As a reminder, the solubility is the dissolved amount per volume that the medium holds. High values mean a readily soluble substance, low ones a poorly soluble substance. Take `Cc1cn(Cc2ccc(Cl)cc2Cl)c2c(/C=C/C(=O)NS(=O)(=O)c3cc(Cl)c(Cl)s3)cc(F)cc12` [DTSI, 4,5-dichlorothiophene-2-sulfonic acid [(E)-3-[1-(2,4-dichlorophenylmethyl)-5-fluoro-3-methyl-1H-indol-7-yl]-acryloyl]amide]: the “EP3 receptor antagonism (in words)” value in data set [1] is given as “potent, selective EP3 receptor antagonist”. Further, the half-maximal inhibitory concentration (IC50) in the data set on human platelets amounted to 218 nM; with rodent platelets (rat) it was 83 nM. In addition, the “aqueous solubility (in words)” value in data set [2] is listed as “poor”. For the same compound, the solubility at 60 min in data set [2] (aqueous solution of 5% Cremophor RH40, aqueous with cosolvent or surfactant or cyclodextrin, 5% Cremophor RH40) came out at 170 µg/mL (≈ 0.287 mM); in data set [2] (aqueous solution of 5% Cremophor RH40 and 1% diethanolamine, aqueous with cosolvent or surfactant or cyclodextrin, 5% Cremophor RH40 and 1% diethanolamine), 22700 µg/mL (≈ 38.3 mM); in data set [2] (aqueous solution of 5% Cremophor RH40 and 1% ethanolamine, aqueous with cosolvent or surfactant or cyclodextrin, 5% Cremophor RH40 and 1% ethanolamine), 8900 µg/mL (≈ 15 mM); in data set [2] (aqueous solution of 5% Cremophor RH40 and 1% triethanolamine, aqueous with cosolvent or surfactant or cyclodextrin, 5% Cremophor RH40 and 1% triethanolamine) it was 8300 µg/mL (≈ 14 mM); in data set [2] (aqueous solution of 5% Cremophor RH40 and 1% tromethamine, aqueous with cosolvent or surfactant or cyclodextrin, 5% Cremophor RH40 and 1% tromethamine), 8700 µg/mL (≈ 14.7 mM); in data set [2] (aqueous solution of 5% Vitamin E TPGS and 1% choline, aqueous with cosolvent or surfactant or cyclodextrin, 5% Vitamin E TPGS and 1% choline) it was 46600 µg/mL (≈ 78.7 mM). Further, the solubility at 60 min in data set [2] (aqueous solution of 5% Vitamin E TPGS and 1% diethanolamine, aqueous with cosolvent or surfactant or cyclodextrin, 5% Vitamin E TPGS and 1% diethanolamine) is 20400 µg/mL (≈ 34.4 mM); in data set [2] (aqueous solution of 5% Vitamin E TPGS and 1% ethanolamine, aqueous with cosolvent or surfactant or cyclodextrin, 5% Vitamin E TPGS and 1% ethanolamine), 19200 µg/mL (≈ 32.4 mM); in data set [2] (aqueous solution of 5% Vitamin E TPGS and 1% triethanolamine, aqueous with cosolvent or surfactant or cyclodextrin, 5% Vitamin E TPGS and 1% triethanolamine), 9200 µg/mL (≈ 15.5 mM); in data set [2] (aqueous solution of 5% Vitamin E TPGS and 1% tromethamine, aqueous with cosolvent or surfactant or cyclodextrin, 5% Vitamin E TPGS and 1% tromethamine) it was 8500 µg/mL (≈ 14.4 mM); in data set [2] (aqueous solution of 5% Vitamin E TPGS and 5% diethanolamine, aqueous with cosolvent or surfactant or cyclodextrin, 5% Vitamin E TPGS and 5% diethanolamine), 58500 µg/mL (≈ 98.8 mM); in data set [2] (aqueous solution of 5% Vitamin E TPGS, aqueous with cosolvent or surfactant or cyclodextrin, 5% Vitamin E TPGS), 100 µg/mL (≈ 0.169 mM). Moreover, the concentration in solution in data set [2] (aqueous with cosolvent or surfactant or cyclodextrin, 5% Vitamin E TPGS and 0.5% diethanolamine) (solubility at 60 min) was 15600 µg/mL (≈ 26.3 mM). The compound further showed a Survival rate in data set [3] of 68%.
